Laboratory results taken from US7829524B2, “Antimicrobial peptides” (Novozymes Adenium Biotech A/S, priority 2003, dated 2010).
Read-outs that look alike come from different tables or passages of the source. Where no end group is shown, it is not given here.

Key:
[1] = tested on: Pseudomonas aeroginosa (ATCC27853); format: cell-based, Pseudomonas aeruginosa
Experimental: (§1) According to the NCCLS guidelines for susceptibility test of novel antimicrobial compounds, we found a broad spectrum of activity of Cat1 (Methods for Dilution Antimicrobial Susceptibility Tests for Bacteria That Grow Aerobically; Approved Standard-Fifth Edition. NCCLS document M7-A5 (ISBN1-56238-394-9)).
(§2) In another campaign, the specific MICs of Cat1 were determined against a variety of microbial strains relevant for wound infections. As recommended in the above-mentioned NCCLS protocol, the strains were grown in cationic adjusted Muller-Hinton Broth. The highest concentration tested was 32 μg/ml.
Minimal inhibitory concentrations of Cat1 were also determined using cation-adjusted Mueller hinton broth (MHB) in the microbroth dilution assay, wherein MHB was used with different modifications as depicted in Table 2 below. The selected test organism was Pseudomonas aeroginosa (ATCC 27853). […]

[2] = tested on: Klepsiella pneumoniae (ATCC10031); assay: Radial diffusion assay (MEC); format: cell-based; conditions: susceptible species
Experimental: (§3) A modified version of a previously published protocol has been applied in the detection of antimicrobial activity (Lehrer et al., (1991) Ultra sensitive assays for endogenous antimicrobial polypeptides J Immunol Methods 137: 167-173). Target bacteria (10^6 colony forming units (CFU)) were added to 10 ml of underlay agarose (1% low electro-endosmosis agarose, 0.03% Trypticase soy broth, 10 mM sodium phosphate, pH 7.4, 37 degrees Celsius). Suspension was solidified on an INTEGRID Petri Dish (Becton Dickinson Labware). A 3 mm Gel Puncher was used to make holes in the underlay agarose (Amersham Pharmacia Biotech, Sweden). Samples were added to the holes and incubated at 37 degrees Celsius, 3 hours. An overlay was poured on top and the plate was incubated overnight (LB media, 7.5% Agar). Antimicrobial activity was seen as bacterial clearing zones around the wells. Living cells was counterstained by adding 10 ml, 0.2 mM MTT (3-(4,5-Dimethylthiazol-2-yl)-2,5-diphenyltetrazolium bromide Thiazolyl blue).

[3] = tested on: Pseudomonas aeroginosa (ATCC27853); assay: Radial diffusion assay (MEC); format: cell-based; conditions: susceptible species
Experimental: as §3

[4] = tested on: Micrococcus luteus (ATCC9341); assay: Radial diffusion assay (MEC); format: cell-based; conditions: susceptible species
Experimental: as §3

[5] = tested on: Salmonella choleraesuis (DSM9220); assay: Radial diffusion assay (MEC); format: cell-based; conditions: susceptible species
Experimental: as §3

[6] = tested on: Enterococcus hirae (ATCC10541); assay: Radial diffusion assay (MEC); format: cell-based; conditions: susceptible species
Experimental: as §3

[7] = tested on: Staphylococcus aureus (ATCC29737); assay: Radial diffusion assay (MEC); format: cell-based; conditions: susceptible species
Experimental: as §3

[8] = tested on: Enterococcus faecalis (DSM2570); assay: Radial diffusion assay (MEC); format: cell-based; conditions: susceptible species
Experimental: as §3

[9] = tested on: Bacillus subtilis (ATCC6633); assay: Radial diffusion assay (MEC); format: cell-based; conditions: susceptible species
Experimental: as §3

[10] = tested on: Eschericia coli (ATCC10536); assay: Radial diffusion assay (MEC); format: cell-based; conditions: susceptible species
Experimental: as §3

[11] = tested on: Proteus mirabilis (ATCC7002); assay: Radial diffusion assay (MEC); format: cell-based; conditions: susceptible species
Experimental: as §3

Escherichia coli Top10 = assay: Radial Diffusion Assay using minimal conditions (MEC); format: cell-based; conditions: Table 8
Experimental: as §3
(§4) The antimicrobial activity of the polypeptides of the invention was also analyzed in a Radial Diffusion Assay (see Example 1) using minimal conditions. Two bacterial strains were tested in this setup; Staphylococcus camosus and Escherichia coli Top10. The amino acid sequence of the polypeptides and the Minimal Effective Concentration (MEC, microgram/ml) obtained is presented in table 8 below.

Staphylococcus camosus = assay: as above; format: cell-based; conditions: Table 8
Experimental: as §3, §4

[12] = tested on: Bortadella bronchiseptica (ATCC4617); assay: NCCLS microdilution broth assay (MIC); format: cell-based; conditions: susceptible strain, NCCLS guidelines
Description: as §1

[13] = tested on: Klepsiella pneumoniae (ATCC10031); assay: NCCLS microdilution broth assay (MIC); format: cell-based; conditions: susceptible strain, NCCLS guidelines
Description: as §1

[14] = tested on: Staphylococcus epidermidis (DSM1798); assay: NCCLS microdilution broth assay (MIC); format: cell-based; conditions: susceptible strain, NCCLS guidelines
Description: as §1

[15] = tested on: Enterococcus faecalis (DSM2570); assay: NCCLS microdilution broth assay (MIC); format: cell-based; conditions: susceptible strain, NCCLS guidelines
Description: as §1

[16] = tested on: Bacillus subtilis (ATCC6633); assay: NCCLS microdilution broth assay (MIC); format: cell-based; conditions: susceptible strain, NCCLS guidelines
Description: as §1

[17] = tested on: Proteus mirabilis (ATCC7002); assay: NCCLS microdilution broth assay (MIC); format: cell-based; conditions: susceptible strain, NCCLS guidelines
Description: as §1

[18] = tested on: Eschericia coil (ATCC10536); format: cell-based, Escherichia coli
Experimental: as §1
(§5) The antimicrobial activity of the polypeptides of the invention was analyzed using the Microdilution Broth Assay (see Example 1) with Mueller Hinton Broth (MHB) media. Four different bacterial strains were tested in this setup; Micrococcus luteus (ATCC 9341), Pseudomonas aeruginosa (ATCC 27853), Escherichia coli (ATCC 10536) and Klebsiella pneumoniae (DSM681). The amino acid sequence of the polypeptides and the Minimal Inhibitory concentrations (MIC, microgram/ml) obtained is presented in Table 7 below.

[19] = tested on: Micrococcus luteus (ATCC9341); format: cell-based; conditions: susceptible strain, NCCLS guidelines
Experimental: as §1, §2, §5

[20] = tested on: Klebsiella pneumoniae (DSM681); format: cell-based
Experimental: as §1, §5

[21] = tested on: Pseudomonas aeroginosa (ATCC 27853); assay: Killing kinetics in MHB; format: cell-based, Pseudomonas aeruginosa; conditions: Cat1 at 4×MIC
Experimental: The rate of killing of Cat1 was determined in MHB using Pseudomonas aeroginosa (ATCC 27853) as the test organism. The bacteria were incubated with Cat1 (at 4×MIC concentration). At different time-points, several dilutions of the preparation were plated and an estimate of viable cells was determined (CFU/ml). The results in Table 3 indicate that Cat1 rapidly kills the bacteria, with a near 3-log reduction in CFU within 30 minutes.

[22] = tested on: Clostridium difficile ATCC 43594; assay: NCCLS microdilution broth assay (MIC), wound infection strains; format: cell-based; conditions: Table 1; cationic adjusted Muller-Hinton Broth; highest concentration tested 32 μg/ml
Experimental: as §1, §2

[23] = tested on: Salmonella choleraesuis (DSM9220); format: cell-based
Description: as §1

bacteria strains = assay: NCCLS microdilution broth assay, minimal bactericidal concentration (MBC); format: cell-based; conditions: compared with MIC (<64 μg/ml) of the susceptible strains
Description: as §1

[24] = susceptible strain, NCCLS guidelines

“GLLRRLRKKIGKKLKKIGQKIKPIRILVP [SEQ ID NO: 3]” showed an MIC ([1]; ATCC27853, pH 5.5) of 6 µg/mL, an MIC ([1]; ATCC27853, pH 6.5) of 6 µg/mL and an MIC [1, 24] of under 64 µg/mL. For the same sequence, the “Minimal Effective Concentration (MEC)” value [2] was under 64 µg/mL, the “Minimal Effective Concentration (MEC)” value [3] was under 64 µg/mL and the “Minimal Effective Concentration (MEC)” value [4] was under 64 µg/mL. The “Minimal Effective Concentration (MEC)” value [5] was under 64 µg/mL, the “Minimal Effective Concentration (MEC)” value [6] was under 64 µg/mL and the “Minimal Effective Concentration (MEC)” value [7] was under 64 µg/mL. For the same sequence, the “Minimal Effective Concentration (MEC)” value [8] was under 64 µg/mL, the “Minimal Effective Concentration (MEC)” value [9] was under 64 µg/mL and the “Minimal Effective Concentration (MEC)” value [10] was under 64 µg/mL. For the same sequence, the “Minimal Effective Concentration (MEC)” value [11] was under 64 µg/mL, the MEC (Escherichia coli Top10) was 8.5 µg/mL and the MEC (Staphylococcus camosus) was 2.5 µg/mL. For the same sequence, the MIC [12] was under 64 µg/mL, the MIC [13] was under 64 µg/mL and the MIC [14] was under 64 µg/mL. It also gave an MIC [15] of under 64 µg/mL, an MIC [16] of under 64 µg/mL and an MIC [17] of under 64 µg/mL. The MIC ([18]; ATCC10536) was 8 µg/mL, the MIC [18, 24] was under 64 µg/mL and the MIC [19] was under 64 µg/mL. For the same sequence, the MIC [20] was 32 to 64 µg/mL, the “viable cells (CFU/ml)” value ([21]; 0.5 hours) was 175 CFU/ml and the “viable cells (CFU/ml)” value ([21]; 1.5 hours) was under 20 CFU/ml. The “viable cells (CFU/ml)” value ([21]; 24 hours) was under 20 CFU/ml, the “reduction in CFU” value ([21]; within 30 minutes) was about 3 log and the MIC [22] was 32 µg/mL. The MIC [23] was under 64 µg/mL and the “Minimal bactericidal concentration (MBC)” value (bacteria strains) was “in a similar range”.
